{"source": "ChEMBL document CHEMBL1151363", "about": "“Chemical composition and biological activity of the Tanzanian plant Ocimum suave” (1981)", "format_in_all_cases": "functional", "key": {"Staphylococcus aureus": {"tested_on": "Staphylococcus aureus", "assay": "Antimicrobial activity against Staphylococcus aureus ATCC 6538 after 48 hrs", "conditions": "ATCC 6538, 48 h"}, "Saccharomyces cerevisiae": {"tested_on": "Saccharomyces cerevisiae", "assay": "Antimicrobial activity against Saccharomyces cerevisiae UNSA Y-40 after 48 hrs"}, "Micrococcus luteus": {"tested_on": "Micrococcus luteus", "assay": "Antimicrobial activity against Micrococcus luteus ATCC 9341 after 48 hrs", "conditions": "ATCC 9341, 48 h"}, "Escherichia coli": {"tested_on": "Escherichia coli", "assay": "Antimicrobial activity against Escherichia coli UNSWO24101 after 48 hrs"}}}
{"smiles": "C=CCc1ccc(O)c(OC)c1", "note": "[EUGENOL]", "values": [{"measurement": "MIC", "setting": "Staphylococcus aureus", "result": 700, "unit": "µg/mL"}, {"measurement": "MIC", "setting": "Saccharomyces cerevisiae", "result": 400, "unit": "µg/mL"}, {"measurement": "MIC", "setting": "Micrococcus luteus", "result": 600, "unit": "µg/mL"}, {"measurement": "MIC", "setting": "Escherichia coli", "result": 600, "unit": "µg/mL"}]}
